Results reported in ChEMBL document CHEMBL1146872, “Synthesis, biochemical evaluation and rationalisation of the inhibitory activity of a series of 4-hydroxyphenyl ketones as potential inhibitors of 17beta-hydroxysteroid dehydrogenase type 3 (17beta-HSD3)” (Bioorg Med Chem Lett, 2006).

Key:
[1] = system: 17beta-HSD3 (Rattus norvegicus); test: Inhibition of 17beta-HSD3 at 100 uM
[2] = target: 17beta-HSD3 (Rattus norvegicus); test: Inhibition of 17beta-HSD3

Row | inhibition [1] | IC50 [2] | SMILES
1 | 78.9% | 7.55 µM | CCCCCCCCCCCC(=O)c1ccc(O)cc1
2 | 76.4% | 18 µM | CCCCCC(=O)c1ccc(O)cc1
3 | 80.3% | 7.84 µM | CCCCCCC(=O)c1ccc(O)cc1
4 | 82.6% | 6.52 µM | CCCCCCCC(=O)c1ccc(O)cc1
5 | 81.4% | 4.97 µM | CCCCCCCCCC(=O)c1ccc(O)cc1
